# Laboratory results from publication PMC12045974, “T cell toxicity induced by tigecycline binding to the mitochondrial ribosome” (Nature Communications, 2025).
# “And” between values parts separate entries of the source, which are not always exact repeats. Identical values can stand only once. Like-named read-outs stand apart in the source and are kept apart here.
# Assays:
# Jurkat T cells = test: Cell viability assay (CCK-8), Jurkat T cells; assay type: cell-based, human; details: for cell vialibity normalized to Vehicle (DMSO): in % (unit assumed)
# Outline: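 This CCK-8 viability assay used Jurkat T cells seeded at 6000 per well and grown in supplemented RPMI-1640, 100 μl per well. Antibiotic stocks in DMSO were diluted in medium to give 9 concentrations, and untreated wells received matching DMSO. After treatment, cells were incubated with 10% CCK-8 for 3 h. Results were normalized to vehicle, technical repeats were plotted as mean ± SEM, and IC50 values were derived.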
# [1] = test system: mitochondrial translation; test: 35S metabolic labeling, de novo mitochondrial translation assay in Jurkat T cells; assay type: cell-based, human; details: 5 μM, 18 h of treatment
# Description: Jurkat T cells were seeded in 6-well plates at a density of 1 million cells/ml and cultured with different concentrations of antibiotics for 18 h in RPMI-1640 medium (with 10% FBS, 2.05 mM L-glutamine (Sigma), and 55 μM 2-ME (Gibco)). After centrifugation, cells were incubated twice for 5 min at 37 °C in Cys-/Met-free medium (DMEM, high glucose, no glutamine, no methionine, no cysteine, supplemented with 10% dialyzed fetal bovine serum, 1× GlutaMax, and sodium pyruvate), followed by 20 min incubation at 37 °C in Cys-/Met-free medium supplemented with 100 µg/ml emetine to inhibit cytosolic translation (only for mitochondrial translation groups). Subsequently, 1 ml Cys-/Met-free medium supplemented with 200 (for cytosolic translation) or 400 µCi (for mitochondrial translation) of EasyTag EXPRESS [^35S] protein labeling mix (methionine and cysteine) (Perkin Elmer) were added to each sample and incubated for 20 min at 37 °C, 5% CO2. Following labeling, cells were washed three times with 1 ml PBS, harvested by centrifugation (400 × g, 10 min, 4 °C), and stored at −20 °C. Cells were lysed by resuspension in 30 µl PBS supplemented with a Complete EDTA-free protease inhibitor cocktail and 50 U Benzonase nuclease (Sigma) and by application of one freeze-thaw cycle. Protein contents were determined by Pierce BCA assay (Thermo Fisher). […]
# HeLa cells = test: Cell viability assay (CCK-8), HeLa cells; assay type: cell-based; details: in % (unit assumed)
# Description: (§1) Cells were seeded in 96-well plates ranging from 2000 to 15,000 cells per well depending on different cell lines and treated with antibiotics in serial dilutions for 72 h (120 h for the preliminary assays) in a humidified incubator (37 °C, 5% CO2) in 100 μl medium (DMEM with 10% FBS, 2.05 mM L-glutamine (Sigma) for Hek293 and Hela; RPMI-1640 with 10% FBS, 2.05 mM L-glutamine (Sigma), and 55 μM 2-ME (Gibco) for Jurkat T cells and PBMCs). Based on preliminary tests, the number of cells per well was optimized to 2000 for Hela and Hek293, 6000 for Jurkat T cells, and 15,000 for PBMCs. The stocks of antibiotics were prepared by dissolving in DMSO. As control, the same amount of DMSO was added to the non-treated groups. Serial drug dilutions were prepared in the corresponding medium to provide a total of 9 concentrations up to 300 μM for tetracyclines and up to 900 μM for additional bacterial protein synthesis inhibitors. After drug treatment, 10% CCK-8 (Cell Counting Kit-8, Sigma Aldrich) (10 μl per well) of the total volume was added to the cells and incubated for 1–4 h depending on cell lines (1 h for Hela and Hek293; 3 h for Jurkat T cells; 4 h for PBMCs) before the evaluation of the effect of antibiotics on cell viability. […] Results were visually confirmed under the light microscope. Each treatment was performed in technical repeats. Dose-response curves were plotted, mean ± SEM was shown, and half maximal inhibitory concentration (IC50) values were calculated in GraphPad Prism.
# PBMCs = test: Cell viability assay (CCK-8), PBMCs; assay type: cell-based, human; details: Homo sapiens, PBMC, 72 h, PBMCs, read-out: cell vialibity normalized to Vehicle (DMSO)
# Description: as §1, with “Buffy coats were ordered from anonymous blood donors at […]. […] Cells” for “Cells”, “1-4” for “1–4”
compound,measurement,setting,value
"C[C@H]1c2cccc(O)c2C(=O)C2=C(O)[C@]3(O)C(=O)C(C(N)=O)=C(O)[C@@H](N(C)C)[C@@H]3[C@@H](O)[C@@H]21 [Doxycycline, doxycycline]",IC50,"Jurkat T cells; Homo sapiens, 120 h, Jurkat T cells, after 5 days, read-out: IC50 (cell survival)",6.93 µM
same,cell vialibity normalized to Vehicle (DMSO),"Jurkat T cells; Jurkat 3d, dose 1 μM",102.781 and 111.139 and 99.3878 and 96.4732 and 90.2582
same,cell vialibity normalized to Vehicle (DMSO),"Jurkat T cells; Jurkat 3d, dose 5 μM",115.784 and 120.149 and 111.073 and 98.3364 and 101.664
same,cell vialibity normalized to Vehicle (DMSO),"Jurkat T cells; Jurkat 3d, dose 10 μM",38.4083 and 33.5773 and 30.3966 and 27.7083 and 36.9178
same,cell vialibity normalized to Vehicle (DMSO),"Jurkat T cells; Jurkat 3d, dose 50 μM",15.6109 and 16.1964 and 17.4075 and 16.8885 and 14.799
same,cell vialibity normalized to Vehicle (DMSO),"Jurkat T cells; Jurkat 3d, dose 100 μM",22.9705 and 21.6928 and 21.7195 and 21.0407 and 21.5331
same,cell vialibity normalized to Vehicle (DMSO),"Jurkat T cells; Jurkat 5d, dose 1 μM",114.324 and 76.849 and 78.0026 and 73.9947 and 75.2933
same,cell vialibity normalized to Vehicle (DMSO),"Jurkat T cells; Jurkat 5d, dose 5 μM",77.1127 and 72.762 and 88.7937 and 109.835 and 79.8088
same,cell vialibity normalized to Vehicle (DMSO),"Jurkat T cells; Jurkat 5d, dose 10 μM",12.7884 and 10.534 and 11.8194 and 11.8853 and 12.2149
same,cell vialibity normalized to Vehicle (DMSO),"Jurkat T cells; Jurkat 5d, dose 50 μM",9.394 and 7.97 and 7.877 and 8.029 and 7.9499
same,cell vialibity normalized to Vehicle (DMSO),"Jurkat T cells; Jurkat 5d, dose 100 μM",12.3797 and 14.0541 and 16.7699 and 13.5333 and 13.3553
same,cell vialibity normalized to Vehicle (DMSO),"Jurkat T cells; Jurkat, 72 h, dose 0.0457247 μM, Fig. 1A",104.061 and 104.425 and 103.549
same,cell vialibity normalized to Vehicle (DMSO),"Jurkat T cells; Jurkat, 72 h, dose 0.137174 μM, Fig. 1A",102.734 and 100.282 and 102.099
same,cell vialibity normalized to Vehicle (DMSO),"Jurkat T cells; Jurkat, 72 h, dose 0.411523 μM, Fig. 1A",102.372 and 108.487 and 106.988
same,cell vialibity normalized to Vehicle (DMSO),"Jurkat T cells; Jurkat, 72 h, dose 1.23457 μM, Fig. 1A",101.608 and 103.54 and 101.759
same,cell vialibity normalized to Vehicle (DMSO),"Jurkat T cells; Jurkat, 72 h, dose 3.7037 μM, Fig. 1A",101.93 and 103.62 and 98.3642
same,cell vialibity normalized to Vehicle (DMSO),"Jurkat T cells; Jurkat, 72 h, dose 11.1111 μM, Fig. 1A",87.2939 and 95.2132 and 89.0432
same,cell vialibity normalized to Vehicle (DMSO),"Jurkat T cells; Jurkat, 72 h, dose 33.3333 μM, Fig. 1A",14.5557 and 15.5672 and 13.1235
same,cell vialibity normalized to Vehicle (DMSO),"Jurkat T cells; Jurkat, 72 h, dose 100 μM, Fig. 1A",5.107 and 4.7868 and 3.556
same,inhibition of mitochondrial translation,[1],weaker inhibition
same,cell vialibity normalized to Vehicle (DMSO),"HeLa cells; Hela 3d, dose 1 μM",90.6648 and 96.338 and 89.6672 and 89.6605 and 88.6496
same,cell vialibity normalized to Vehicle (DMSO),"HeLa cells; Hela 3d, dose 5 μM",84.5992 and 86.2752 and 82.4709 and 76.6381 and 79.4714
same,cell vialibity normalized to Vehicle (DMSO),"HeLa cells; Hela 3d, dose 10 μM",79.4248 and 81.7526 and 84.3598 and 79.9369 and 77.0704
same,cell vialibity normalized to Vehicle (DMSO),"HeLa cells; Hela 3d, dose 50 μM",73.5987 and 75.9863 and 80.8614 and 86.3816 and 72.8139
same,cell vialibity normalized to Vehicle (DMSO),"HeLa cells; Hela 3d, dose 100 μM",66.9345 and 67.3003 and 64.2675 and 62.1126 and 67.4466
same,cell vialibity normalized to Vehicle (DMSO),"HeLa cells; Hela 5d, dose 1 μM",99.6093 and 93.5325 and 94.7977 and 102.368 and 101.019
same,cell vialibity normalized to Vehicle (DMSO),"HeLa cells; Hela 5d, dose 5 μM",109.557 and 87.6871 and 94.9961 and 97.211 and 96.619
same,cell vialibity normalized to Vehicle (DMSO),"HeLa cells; Hela 5d, dose 10 μM",94.5723 and 89.5534 and 92.3875 and 106.137 and 99.0323
same,cell vialibity normalized to Vehicle (DMSO),"HeLa cells; Hela 5d, dose 50 μM",75.251 and 76.5432 and 75.1938 and 78.2863 and 73.7483
same,cell vialibity normalized to Vehicle (DMSO),"HeLa cells; Hela 5d, dose 100 μM",73.589 and 66.6556 and 71.8609 and 76.0624 and 69.5949
same,viability at 0.0457247 µM,"PBMCs; dose 0.0457247 μM, Fig. 1A",105%
same,viability at 0.137174 µM,"PBMCs; dose 0.137174 μM, Fig. 1A",100%
same,viability at 0.411523 µM,PBMCs; Fig. 1A,101%
same,viability at 0.411523 µM,PBMCs; Fig. 1B,103%
same,viability at 3.7037 µM,PBMCs; Fig. 1A,103%
same,viability at 3.7037 µM,PBMCs; Fig. 1B,135%
same,viability at 33.3333 µM,PBMCs; Fig. 1A,89.9%
same,viability at 33.3333 µM,PBMCs; Fig. 1B,19.7%
same,viability at 100 µM,"PBMCs; dose 100 μM, Fig. 1A",34.7%
